Experimental data published in PMC8464850, “Sulfonium Ligands of the α7 nAChR” (Molecules, 2021).

Tests used:
[1] = tested on: neuronal heteromeric receptors; assay: Activation of neuronal heteromeric nAChR (panel); type: cell-based, human; settings: all heteromeric subtypes tested
Description: Concatamers were used in order to obtain heteromeric receptors with known subunit composition. The β2-6-α4 concatamer was co-expressed with monomeric α4, β2, or α5 to obtain receptors with the composition α4(3)β2(2), α4(2)β2(3), or α4(2)β2(2)α5, respectively. A concatamer of five linked subunits was used to obtain the β3α4 β2α6β2 receptors. The α3β4 receptors were formed from the co-expression of α3 and β4 subunit monomers at equal ratios. Note that the data were initially measured relative to internal ACh control responses for each oocyte (Methods). Responses were subsequently adjusted for the relative values of the ACh controls and the ACh maximum responses for each of the various subtypes, determined in previous experiments. […]
Solutions were applied from 96-well plates via disposable tips. […] The responses were calculated as both peak current amplitudes and net charge, as previously described. Data were collected at 50 Hz, filtered at 20 Hz for α7 receptors or filtered at 5 Hz for heteromeric nAChR, and analyzed by Clampfit (Molecular Devices, San Jose, CA, USA) and Excel (Microsoft, Redmond, WA, USA). Data were expressed as means ± SEM from at least four oocytes for each experiment and plotted with Kaleidagraph 4.5.2 (Abelbeck Software, Reading, PA, USA). Multi-cell averages were calculated for comparisons of complex responses. […]

α4β2α5 = target: T1, α4β2α5 (Homo sapiens, UniProt P17787+P43681); assay: Activation of heteromeric nAChR by S1: α4(2)β2(2)α5; type: cell-based
T1 construct: expressed in transfected cells; host or cells: Xenopus laevis oocytes (injected RNA)
Description: Concatamers were used in order to obtain heteromeric receptors with known subunit composition. The β2-6-α4 concatamer was co-expressed with monomeric α4, β2, or α5 to obtain receptors with the composition α4(3)β2(2), α4(2)β2(3), or α4(2)β2(2)α5, respectively. A concatamer of five linked subunits was used to obtain the β3α4 β2α6β2 receptors. The α3β4 receptors were formed from the co-expression of α3 and β4 subunit monomers at equal ratios. Note that the data were initially measured relative to internal ACh control responses for each oocyte (Methods). Responses were subsequently adjusted for the relative values of the ACh controls and the ACh maximum responses for each of the various subtypes, determined in previous experiments.
Figure 6 Activation of heteromeric neuronal nAChR by S1. […] Data are the average peak currents (n = 6–8 oocytes ± SEM), measured relative to initial ACh control responses for each oocyte (concentrations listed in Methods). Responses were subsequently adjusted for the relative values of the ACh controls and the ACh maximum responses for each of the various subtypes, determined in previous experiments. […]
Solutions were applied from 96-well plates via disposable tips. […] The responses were calculated as both peak current amplitudes and net charge, as previously described. […] Multi-cell averages were calculated for comparisons of complex responses. […]

[2] = tested on: α4β2 subtypes formed with concatamers; assay: Inhibition of ACh control peak-current responses of α4-containing nAChR formed with concatamers; type: cell-based, human; settings: 100 µM compound, Figure 7B
Description: Although none of the other sulfonium compounds activated neuronal heteromeric receptors, several of them produced inhibition of ACh-evoked responses. Shown in Figure 7A are concentration-response studies for the compounds that were active antagonists of α3β4 nAChR (Table 3). Some compounds were also tested as antagonists of α4β2 subtypes formed with concatamers (Figure 7B).
Figure 7 Inhibition of heteromeric nAChR by sulfonium compounds. (A) Inhibition of α3β4 100 µM ACh-evoked peak currents by the co-application of the sulfonium compounds. Data are the averaged of six to eight oocytes (±SEM). […]
Solutions were applied from 96-well plates via disposable tips. […] The responses were calculated as both peak current amplitudes and net charge, as previously described. Data were collected at 50 Hz, filtered at 20 Hz for α7 receptors or filtered at 5 Hz for heteromeric nAChR, and analyzed by Clampfit (Molecular Devices, San Jose, CA, USA) and Excel (Microsoft, Redmond, WA, USA). Data were expressed as means ± SEM from at least four oocytes for each experiment and plotted with Kaleidagraph 4.5.2 (Abelbeck Software, Reading, PA, USA). Multi-cell averages were calculated for comparisons of complex responses. Averages of the normalized data were calculated for each of the 10,322 points in each of the 206.44 s traces (acquired at 50 Hz), as well as the standard errors for those averages.

T1 sequence (P17787 26-502): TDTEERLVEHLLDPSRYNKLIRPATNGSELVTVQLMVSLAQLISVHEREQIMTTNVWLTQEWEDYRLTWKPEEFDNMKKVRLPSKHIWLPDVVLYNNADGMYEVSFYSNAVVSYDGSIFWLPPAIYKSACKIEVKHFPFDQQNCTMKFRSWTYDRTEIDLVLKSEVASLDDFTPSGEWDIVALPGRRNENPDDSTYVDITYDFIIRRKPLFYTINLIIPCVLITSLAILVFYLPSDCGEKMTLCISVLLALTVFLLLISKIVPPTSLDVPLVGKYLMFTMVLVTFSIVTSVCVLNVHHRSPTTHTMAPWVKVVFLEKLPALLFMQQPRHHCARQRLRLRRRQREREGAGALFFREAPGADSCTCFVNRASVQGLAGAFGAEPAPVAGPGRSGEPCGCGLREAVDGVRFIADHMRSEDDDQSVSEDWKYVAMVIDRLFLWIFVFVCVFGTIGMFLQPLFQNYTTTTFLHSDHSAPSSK
T1 sequence (P43681 29-627 limits assumed): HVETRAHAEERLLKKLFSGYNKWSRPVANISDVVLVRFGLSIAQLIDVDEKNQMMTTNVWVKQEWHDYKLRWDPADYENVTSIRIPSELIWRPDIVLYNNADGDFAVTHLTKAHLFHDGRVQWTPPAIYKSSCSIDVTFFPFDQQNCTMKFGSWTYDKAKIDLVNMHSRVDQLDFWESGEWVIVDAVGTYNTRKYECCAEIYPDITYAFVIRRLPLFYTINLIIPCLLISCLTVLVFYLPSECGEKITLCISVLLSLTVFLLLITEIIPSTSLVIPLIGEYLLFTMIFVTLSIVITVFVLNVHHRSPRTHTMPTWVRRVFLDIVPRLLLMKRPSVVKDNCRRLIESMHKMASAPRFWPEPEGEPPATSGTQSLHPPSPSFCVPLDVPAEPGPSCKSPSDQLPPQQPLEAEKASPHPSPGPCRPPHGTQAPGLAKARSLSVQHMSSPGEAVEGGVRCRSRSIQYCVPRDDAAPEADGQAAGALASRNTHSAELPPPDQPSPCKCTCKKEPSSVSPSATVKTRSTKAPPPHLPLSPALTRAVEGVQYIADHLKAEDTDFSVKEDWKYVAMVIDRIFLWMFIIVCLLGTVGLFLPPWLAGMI

SMILES: C[S+](C)C.[I-] [Compound S1, trimethylsulfonium iodide]
- activation of neuronal heteromeric receptors [1]: activates all the neuronal heteromeric receptors tested
- IMax (S1 Activation) (α4β2α5; peak currents relative to ACh maximum): 0.50 ± 0.03
- EC50 (α4β2α5; peak currents, unit inferred): 114 ± 25 µM

SMILES: C[S+](C)c1cc([N+](=O)[O-])ccc1O.[Br-] [Compound S10, (2-hydroxy-5-nitrophenyl)dimethylsulfonium bromide]
- relative antagonist activity [2]: least
